The subject of series [1] is Normal human mesangial cells. The experiment in a line: Inhibitory effect on human FXa-induced human mesangial cell proliferation (DNA amount by fluorescence). The conditions noted are these: for Fluorescence intensity: FXa 20 nM, 111 hours culture. It is filed as cell-based. How it is done: Normal human mesangial cells were seeded at 10000 cells/200 μL of Mesangial cell growth medium/well in 96-well plates, and cultured in CO2 incubator (37° C., O2:CO2=95:5). One day after seeding, cells were rinsed with Mesangial cell basal medium containing 0.5% bovine serum albumin (not containing growth factors), and then replaced the medium with Mesangial cell basal medium containing 0.5% bovine serum albumin (not containing growth factors) which was containing human activated coagulation factor X (hereinafter referred to as FXa; Calbiochem) and a test compound of certain concentrations, and cultured for 111 hours in CO2 incubator (37° C., O2:CO2=95:5). After cultivation, cells were rinsed with Hank's balanced salt solution at 250 μL/well, and frozen preservation of the cells at −30° C. was carried out until the measurement of the amount of DNAs for every plate. For measurement of the amount of DNAs, fluorescence intensity (measurement condition: excitation 480 nm; emission 520 nm) was estimated using Cell Proliferation Assay Kit (Molecular Probe). […] In addition, it is shown that * in the Table has a significant difference (p<0.05) compared with the group which was added FXa alone.

A further series concerns ICR mice. The experiment in a line: Acute toxicity test, tail vein administration. It is filed as in vivo. The conditions noted are these: male ICR mice, 24 hours. As for the experimental part: Male ICR mice aged 7 weeks (SLC) were divided into several groups consisting of 5 mice. […] The solution was administered through the tail vein at an infusion rate of 1 mL/minute. Observations were performed at constant interval, and the survival rate was judged for 24 hours.

The test system of series [2] is db/db mice. The experiment in a line: Inhibitory effect on development of diabetic nephropathy in db/db mice (urine albumin/creatinine ratio). In kind it is in vivo. As to conditions: 100 mg/kg orally twice a day for 10 weeks. As for the experimental part:
Six weeks old male db/db mice (20 individuals) and non-diabetic type db/+m mice (10 individuals) were used. db/db Mice were divided into two groups (each 10 individuals), a test compound suspended in a 0.5% methylcellulose solution was orally administrated at 100 mg/kg to one group (test compound group) twice a day. On the other hand, a 0.5% methylcellulose solution alone was orally administrated to another group (control group) and db/+m mice twice a day. After continuing administration for 10 weeks, urine collection was performed for each mouse using a metabolism cage for 24 hours. Insoluble substances in collected urine samples were removed by centrifugal separation. The urine albumin/creatinine ratio which can be obtained by rectifying the urine albumin concentration by the urine creatinine concentration was evaluated as the index of the urine protein excretion. In addition, the urine albumin/creatinine ratio was calculated based on the formula below. Urine albumin/creatinine ratio=Urine albumin concentration/Urine creatinine concentration Urine albumin concentration was measured using a Murine Microalbuminurea ELISA Kit (Exocell Icc.), and urine creatinine concentration was measured using a commercial kit for creatinine (Wako). […] In addition, it is shown that * in the Table has a significant difference (p<0.05) compared with control group.

Series [3] concerns db/db mice. The experiment in a line: Inhibitory effect on hypercoagulable state in db/db mice (plasma TAT level). It is filed as in vivo. The conditions noted are these: 100 mg/kg orally, one hour after administration. As for the experimental part:
Thirty two weeks old male db/db mice (11 individuals) and wild type +m/+m mice (6 individuals) were used. db/db Mice were divided into two groups, a 0.5% methylcellulose solution containing a test compound at 100 mg/kg was orally administrated to one group (test compound group, 6 individuals). On the other hand, a 0.5% methylcellulose solution alone was orally administrated to another group (control group, 5 individuals) and +m/+m mice. One hour after administration, mice were anesthetized with diethyl ether. […] Plasma thrombin-antithrombin III complex (TAT) level was measured using an EIA (enzyme immunoassay) kit (Dade behring). […] In addition, it is shown that * in the Table has a significant difference (p<0.05) compared with control group.

SMILES strings stand for the structures.

As for `CS(=O)(=O)c1ccccc1-c1ccc(CCNS(=O)(=O)c2cc(C(=N)N)ccc2O)c(OCC(=O)O)c1.Cl` [Compound 33, [4-[2-(5-Carbamimidoyl-2-hydroxybenzenesulfonylamino)-ethyl]-2′-methanesulfonoylbiphenyl-3-yloxy]acetic acidhydrochloride], in series [1] (FXa-induced human mesangial cells), the “Inhibition of human FXa-induced mesangial cell proliferation (in words)” value was “inhibited human FXa-induced mesangial cell proliferation concentration-dependently”. Also, the Fluorescence intensity is on record as 206.2 in series [1] (test compound 1 μM, FXa alone 227.0, no FXa 186.8) and 178.3* in series [1] (test compound 10 μM, * p<0.05 vs FXa alone (227.0)). Further, the Number of death in the series with ICR mice (Method B: 100 mg/10 mL/kg) is given as 0/5.
In the case of `CCCCOC(=O)COc1cc(-c2ccccc2S(C)(=O)=O)ccc1CCNS(=O)(=O)c1cc(C(=N)NO)ccc1O.Cl` [Compound 48, n-Butyl [4-[2-[2-Hydroxy-5-(N-hydroxycarbamimidoyl)-benzenesulfonylamino]ethyl]-2′-methanesulfonylbiphenyl-3-yloxy]acetate hydrochloride], in the series with db/db mice [2], the “Inhibition of urine albumin excretion (in words)” value was “inhibited urine albumin excretion significantly”. The Urine albumin/creatinine ratio in the series on db/db mice [2] (24 hours urine, * p<0.05 vs control group (0.386)) was 0.202*. Moreover, the “Effect on plasma TAT level / hypercoagulable state (in words)” value in the series with db/db mice [3] was “decreased plasma TAT level significantly”. In the series with db/db mice [3] (* p<0.05 vs control group (69.25)), the “Plasma thrombin-antithrombin III complex level” value is 8.31*.
Turning to `CS(=O)(=O)c1ccccc1-c1ccc(CCNS(=O)(=O)c2cc(C(=N)NO)ccc2O)c(OCC(=O)O)c1` [Compound 47, [4-[2-[2-Hydroxy-5-(N-hydroxycarbamimidoyl)benzenesulfonylamino]ethyl]-2′-methanesulfonylbiphenyl-3-yloxy]acetic acid], the Number of death with ICR mice (Method A: 50 mg/10 mL/kg) and in the series on ICR mice (Method B: 100 mg/10 mL/kg) was 0/5 each time.
